The values that follow come from patent publication US8785457B2 (Cellzome Limited, priority 2009, dated 2014).

pIC50: −log10 of the molar value. Like-named read-outs stand apart in the source and are kept apart here.

What all share (assay type): binding
Experiment [1] has as its target T1, DNA-dependent protein kinase (DNA-PK) (Homo sapiens, UniProt P78527).
T1 construct: endogenous in cells; host or cells: Jurkat, clone E6-1 (ATCC TIB-152) cell lysate
The experiment in a line: kinobeads assay, DNA-PK. Particulars: kinobeads assay. The method in brief: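 Competitive binding in Jurkat cell lysate (5 mg/mL protein) against beads carrying an immobilized phenylmorpholin-chromen ligand, in DP buffer pH 7.4 with NP40, DTT and NaF. Bead-bound kinases were eluted and quantified by antibody dot blot with infrared detection, and IC50 was taken from dose-response curves of a 1:3 dilution series.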

For another experiment, the target named is T2, PI3 Kbeta (PI3 Kb) (Homo sapiens, UniProt P42338).
T2 construct: endogenous in cells; host or cells: cell lysate
Nature of the experiment: kinobeads assay, PI3Kbeta. The following applies: kinobeads assay, Table 6; read-out: Inhibition values (IC50) PI3Kb. Summed up:
(§1)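 IC50s are fitted to per-kinase dose-response curves. Kinases retained on phenylmorpholin-chromen affinity beads are read by multiplexed immunodetection after elution. Compound, added at a range of concentrations straight into cell lysate, competes for this bead capture.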

The next experiment concerns the target T3, PI3Kalpha (PI3Ka) (Homo sapiens, UniProt P42336).
T3 construct: endogenous in cells; host or cells: cell lysate
Nature of the experiment: kinobeads assay, PI3Kalpha. Particulars: kinobeads assay, Table 6. The method in brief:
as §1

A further experiment concerns the target T4, PI3 Kgamma (PI3 Kg) (Homo sapiens, UniProt P48736).
T4 construct: endogenous in cells; host or cells: cell lysate
Nature of the experiment: kinobeads assay, PI3Kgamma. Particulars: kinobeads assay, Table 6; read-out: Inhibition values (IC50) PI3Kg. Summed up:
as §1

Setting [2] is: Table 4, read-out: Inhibition values (IC50) DNA-PK.
The mark [3] stands for this setting: Table 6, read-out: Inhibition values (IC50) DNAPK.

T4 sequence (P48736 whole entry): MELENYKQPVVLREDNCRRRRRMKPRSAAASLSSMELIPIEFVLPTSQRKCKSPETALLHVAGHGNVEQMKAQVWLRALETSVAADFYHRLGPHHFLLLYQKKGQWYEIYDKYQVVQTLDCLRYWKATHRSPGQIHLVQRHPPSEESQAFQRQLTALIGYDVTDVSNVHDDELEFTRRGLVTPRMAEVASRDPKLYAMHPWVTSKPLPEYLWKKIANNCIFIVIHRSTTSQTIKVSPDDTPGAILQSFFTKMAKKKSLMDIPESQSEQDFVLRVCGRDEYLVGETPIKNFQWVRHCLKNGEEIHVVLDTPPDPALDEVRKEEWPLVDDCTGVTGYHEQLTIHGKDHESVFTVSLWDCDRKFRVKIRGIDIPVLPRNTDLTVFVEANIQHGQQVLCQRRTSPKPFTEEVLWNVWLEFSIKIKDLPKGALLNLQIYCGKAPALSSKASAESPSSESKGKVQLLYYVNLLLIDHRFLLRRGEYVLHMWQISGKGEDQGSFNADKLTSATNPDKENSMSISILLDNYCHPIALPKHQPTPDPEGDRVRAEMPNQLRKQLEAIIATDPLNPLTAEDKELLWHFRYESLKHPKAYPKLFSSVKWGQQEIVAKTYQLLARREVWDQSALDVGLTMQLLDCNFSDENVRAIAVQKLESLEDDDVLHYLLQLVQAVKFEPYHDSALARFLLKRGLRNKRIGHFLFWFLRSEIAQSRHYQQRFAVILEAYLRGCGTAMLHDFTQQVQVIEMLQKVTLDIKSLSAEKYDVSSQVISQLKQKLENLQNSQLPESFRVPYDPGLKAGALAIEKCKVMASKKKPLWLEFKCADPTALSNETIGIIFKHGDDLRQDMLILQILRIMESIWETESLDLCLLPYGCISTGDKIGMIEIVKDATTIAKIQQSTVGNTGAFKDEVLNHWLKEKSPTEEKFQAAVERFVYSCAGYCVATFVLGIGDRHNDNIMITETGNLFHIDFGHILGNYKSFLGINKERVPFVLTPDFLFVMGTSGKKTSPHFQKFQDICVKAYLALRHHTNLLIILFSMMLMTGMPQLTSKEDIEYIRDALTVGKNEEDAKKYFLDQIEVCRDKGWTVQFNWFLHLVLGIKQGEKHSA
T3 sequence (P42336 whole entry): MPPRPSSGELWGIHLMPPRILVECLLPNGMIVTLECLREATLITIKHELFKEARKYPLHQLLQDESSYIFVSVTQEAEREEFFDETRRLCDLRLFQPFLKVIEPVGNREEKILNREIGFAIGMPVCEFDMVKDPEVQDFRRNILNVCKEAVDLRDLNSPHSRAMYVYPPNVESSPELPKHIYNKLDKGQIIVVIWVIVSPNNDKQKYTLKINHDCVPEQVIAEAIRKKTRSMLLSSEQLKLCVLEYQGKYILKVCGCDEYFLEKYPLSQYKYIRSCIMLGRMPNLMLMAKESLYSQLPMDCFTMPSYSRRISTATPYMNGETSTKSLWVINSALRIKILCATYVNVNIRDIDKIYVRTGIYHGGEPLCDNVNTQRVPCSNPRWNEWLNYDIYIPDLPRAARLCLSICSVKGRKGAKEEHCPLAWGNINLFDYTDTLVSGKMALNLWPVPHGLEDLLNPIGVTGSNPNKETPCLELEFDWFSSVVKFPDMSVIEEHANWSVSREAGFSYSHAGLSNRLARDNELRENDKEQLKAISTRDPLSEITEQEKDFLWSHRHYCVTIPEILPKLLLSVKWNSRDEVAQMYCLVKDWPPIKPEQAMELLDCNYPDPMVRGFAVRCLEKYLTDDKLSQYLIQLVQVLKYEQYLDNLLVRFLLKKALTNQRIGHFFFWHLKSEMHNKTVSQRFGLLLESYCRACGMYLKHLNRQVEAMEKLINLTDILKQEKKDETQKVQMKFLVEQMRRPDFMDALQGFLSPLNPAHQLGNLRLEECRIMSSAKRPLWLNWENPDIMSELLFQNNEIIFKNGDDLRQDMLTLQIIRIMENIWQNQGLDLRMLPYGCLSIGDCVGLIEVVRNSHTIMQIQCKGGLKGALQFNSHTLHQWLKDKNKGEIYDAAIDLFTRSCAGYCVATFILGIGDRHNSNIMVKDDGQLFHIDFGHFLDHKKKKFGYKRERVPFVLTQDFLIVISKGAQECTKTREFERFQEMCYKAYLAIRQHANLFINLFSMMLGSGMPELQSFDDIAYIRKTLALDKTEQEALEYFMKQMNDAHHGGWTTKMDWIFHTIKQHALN
T3 sequence (P27986 whole entry partner): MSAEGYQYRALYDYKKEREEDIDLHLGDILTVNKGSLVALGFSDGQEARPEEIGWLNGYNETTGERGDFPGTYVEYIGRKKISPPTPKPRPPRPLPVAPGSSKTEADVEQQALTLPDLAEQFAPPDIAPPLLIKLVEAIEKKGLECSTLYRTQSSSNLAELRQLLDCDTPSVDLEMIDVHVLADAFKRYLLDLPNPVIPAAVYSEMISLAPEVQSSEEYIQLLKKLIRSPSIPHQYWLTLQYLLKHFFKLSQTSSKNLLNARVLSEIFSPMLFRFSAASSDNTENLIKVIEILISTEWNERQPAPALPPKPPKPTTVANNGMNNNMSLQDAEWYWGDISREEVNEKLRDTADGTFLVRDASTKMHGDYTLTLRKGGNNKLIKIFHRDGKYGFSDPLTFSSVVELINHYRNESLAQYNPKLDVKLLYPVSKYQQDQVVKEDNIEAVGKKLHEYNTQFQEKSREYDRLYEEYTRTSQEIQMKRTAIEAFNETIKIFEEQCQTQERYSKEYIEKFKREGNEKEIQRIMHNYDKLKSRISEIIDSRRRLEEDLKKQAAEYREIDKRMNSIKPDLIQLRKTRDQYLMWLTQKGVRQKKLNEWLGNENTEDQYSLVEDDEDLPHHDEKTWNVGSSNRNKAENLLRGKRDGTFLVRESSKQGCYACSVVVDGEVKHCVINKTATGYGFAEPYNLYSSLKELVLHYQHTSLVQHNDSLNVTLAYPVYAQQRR
T2 sequence (P42338 whole entry): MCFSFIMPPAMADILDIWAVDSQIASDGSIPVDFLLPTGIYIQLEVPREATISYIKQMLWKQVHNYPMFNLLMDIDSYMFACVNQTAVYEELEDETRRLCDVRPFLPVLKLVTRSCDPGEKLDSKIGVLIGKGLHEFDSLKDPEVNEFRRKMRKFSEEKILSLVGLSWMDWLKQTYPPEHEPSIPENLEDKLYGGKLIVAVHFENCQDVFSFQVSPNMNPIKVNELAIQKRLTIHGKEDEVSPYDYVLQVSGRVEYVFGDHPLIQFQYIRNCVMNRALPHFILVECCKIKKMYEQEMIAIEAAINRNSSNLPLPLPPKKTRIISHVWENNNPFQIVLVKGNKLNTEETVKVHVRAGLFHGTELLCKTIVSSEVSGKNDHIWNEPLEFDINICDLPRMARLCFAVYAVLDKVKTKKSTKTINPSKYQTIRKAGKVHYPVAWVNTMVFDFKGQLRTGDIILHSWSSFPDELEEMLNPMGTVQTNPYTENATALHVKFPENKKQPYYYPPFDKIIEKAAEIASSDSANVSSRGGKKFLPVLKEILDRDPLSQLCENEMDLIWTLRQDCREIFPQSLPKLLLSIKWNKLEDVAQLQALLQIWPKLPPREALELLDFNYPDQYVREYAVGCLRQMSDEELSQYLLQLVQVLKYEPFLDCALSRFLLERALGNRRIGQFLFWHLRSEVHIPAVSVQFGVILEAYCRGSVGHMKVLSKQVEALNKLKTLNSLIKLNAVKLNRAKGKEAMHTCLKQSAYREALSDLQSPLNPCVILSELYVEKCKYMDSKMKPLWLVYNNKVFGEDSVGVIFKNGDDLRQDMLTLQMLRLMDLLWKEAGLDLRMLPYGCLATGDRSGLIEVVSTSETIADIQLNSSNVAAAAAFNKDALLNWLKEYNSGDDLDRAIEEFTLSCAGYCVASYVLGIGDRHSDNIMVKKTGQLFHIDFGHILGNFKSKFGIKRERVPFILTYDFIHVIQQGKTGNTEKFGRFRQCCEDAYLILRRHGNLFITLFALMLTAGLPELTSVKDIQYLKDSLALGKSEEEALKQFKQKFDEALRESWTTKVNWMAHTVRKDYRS
T2 sequence (P27986 whole entry partner): as the sequence (P27986 whole entry partner) above

As to `CCNC(=O)Nc1ccc(-c2nc3c(c(N4CCOC[C@@H]4C)n2)CN(C(=O)OC(C)(C)C)C3)cc1` [Example 1, (S)-tert-butyl 2-(4-(3-ethylureido)phenyl)-4-(3-methylmorpholino)-5H-pyrrolo[3,4-d]pyrimidine-6(7H)-carboxylate], the negative-log IC50 (pIC50) in experiment [1] (setting [2]) and in experiment [1] (setting [3]) was under 5.00 throughout.
On to `CCNC(=O)Nc1ccc(-c2nc3c(c(N4CCOC[C@@H]4C)n2)CCN(C(=O)C(C)(C)C)C3)cc1` [Example 58, (S)-1-ethyl-3-(4-(4-(3-methylmorpholino)-7-pivaloyl-5,6,7,8-tetrahydropyrido[3,4-d]pyrimidin-2-yl)phenyl)urea], for which the negative logarithm of the IC50 (pIC50) (on PI3 Kbeta (PI3 Kb); in experiment [1] (setting [2]); in experiment [1] (setting [3]); on PI3 Kgamma (PI3 Kg)) was under 5.00 throughout. For the same compound, at PI3Kalpha (PI3Ka), the “Inhibition values (IC50) PI3Ka” value was “D (D >10 μM)”.
Turning to `CCNC(=O)Nc1ccc(-c2nc3c(c(N4CCOC[C@@H]4C)n2)CCN(C(C)=O)C3)cc1` [Example 59, (S)-1-(4-(7-acetyl-4-(3-methylmorpholino)-5,6,7,8-tetrahydropyrido[3,4-d]pyrimidin-2-yl)phenyl)-3-ethylurea], the pIC50 in experiment [1] (setting [2]) and in experiment [1] (setting [3]) was under 5.00 each time.
Take `C[C@H]1COCCN1c1nc(-c2ccc(NC(=O)NC3CC3)cc2)nc2c1CCN(C(=O)C1CC1)C2` [Example 60, (S)-1-(4-(7-(cyclopropanecarbonyl)-4-(3-methylmorpholino)-5,6,7,8-tetrahydropyrido[3,4-d]pyrimidin-2-yl)phenyl)-3-cyclopropylurea]: the pIC50 (at PI3 Kbeta (PI3 Kb); in experiment [1] (setting [2]); in experiment [1] (setting [3]); on PI3 Kgamma (PI3 Kg)) was under 5.00 throughout. Further, on PI3Kalpha (PI3Ka), the “Inhibition values (IC50) PI3Ka” value is reported as “D (D >10 μM)”.
For the compound `CC(C)C(=O)N1CCc2c(nc(-c3ccc(NC(=O)NC4CC4)cc3)nc2N2CCOC[C@@H]2C)C1` [Example 61, (S)-1-cyclopropyl-3-(4-(7-isobutyryl-4-(3-methylmorpholino)-5,6,7,8-tetrahydropyrido[3,4-d]pyrimidin-2-yl)phenyl)urea], the pIC50 (on PI3 Kbeta (PI3 Kb); in experiment [1] (setting [2]); in experiment [1] (setting [3]); on PI3 Kgamma (PI3 Kg)) was under 5.00 throughout. Further, at PI3Kalpha (PI3Ka), the “Inhibition values (IC50) PI3Ka” value was “D (D >10 μM)”.
As to `CC(=O)N1CCc2c(nc(-c3ccc(NC(=O)NC4CC4)cc3)nc2N2CCOC[C@@H]2C)C1` [Example 62, (S)-1-(4-(7-acetyl-4-(3-methylmorpholino)-5,6,7,8-tetrahydropyrido[3,4-d]pyrimidin-2-yl)phenyl)-3-cyclopropylurea], the pIC50 (at PI3 Kbeta (PI3 Kb); in experiment [1] (setting [2]); in experiment [1] (setting [3]); at PI3 Kgamma (PI3 Kg)) was under 5.00 throughout. For the same compound, the “Inhibition values (IC50) PI3Ka” value at PI3Kalpha (PI3Ka) was “D (D >10 μM)”.
Turning to `C[C@H]1COCCN1c1nc(-c2ccc(NC(=O)NC3CC3)cc2)nc2c1CCN(C(=O)C(C)(C)C)C2` [Example 64, (S)-1-cyclopropyl-3-(4-(4-(3-methylmorpholino)-7-pivaloyl-5,6,7,8-tetrahydropyrido[3,4-d]pyrimidin-2-yl)phenyl)urea], the pIC50 (at PI3 Kbeta (PI3 Kb); in experiment [1] (setting [3]); at PI3 Kgamma (PI3 Kg)) was under 5.00 throughout. Further, the “Inhibition values (IC50) PI3Ka” value at PI3Kalpha (PI3Ka) is recorded as “D (D >10 μM)”.
Turning to `C[C@H]1COCCN1c1nc(-c2ccc(NC(=O)NC3CC3)cc2)nc2c1CN(CC(F)(F)F)C2` [Example 101, (S)-1-cyclopropyl-3-(4-(4-(3-methylmorpholino)-6-(2,2,2-trifluoroethyl)-6,7-dihydro-5H-pyrrolo[3,4-d]pyrimidin-2-yl)phenyl)urea], in experiment [1] (setting [3]), the negative logarithm of the IC50 (pIC50) (as a rule, the negative decadic logarithm of the IC50, by convention in mol/L) is under 5.00.
Consider `C[C@H]1COCCN1c1nc(-c2ccc(NC(=O)NC3CC3)cc2)nc2c1CN(C(=O)C1CCOCC1)C2` [Example 129, (S)-1-cyclopropyl-3-(4-(4-(3-methylmorpholino)-6-(tetrahydro-2H-pyran-4-carbonyl)-6,7-dihydro-5H-pyrrolo[3,4-d]pyrimidin-2-yl)phenyl)urea], for which, on PI3Kalpha (PI3Ka), the “Inhibition values (IC50) PI3Ka” value is recorded as “D (D >10 μM)”. The negative logarithm of the IC50 (pIC50) on PI3 Kgamma (PI3 Kg) was under 5.00.
